Measured values from paper PMC11832194, “Cystatin from Austrelaps superbus snake venom as a model for identifying potential inhibitors of Trypanosoma cruzi cruzain” (The Journal of Venomous Animals and Toxins Including …, 2025).
Where two headings read alike, the source gives them in different places. No end group written: not given here.

What was measured:
cruzain = target: T1, cruzain (Trypanosoma cruzi, UniProt P25779); assay: Inhibition of cruzain enzymatic (proteolytic) activity, casein substrate; type: biochemical; conditions: cruzain 50 μM, peptide 500 to 62.5 μM, 1% casein substrate, Tris-HCl 0.1 M pH 8, 37°C, absorbance 280 nm, read-out: I50(µM) ± SD, inhibition of cruzain proteolytic activity
T1 construct: From 40 to 120 minutes, mature cruzain was obtained in a soluble and enzymatically active form; His tag (histidine tail); made in house; host or cells: E. coli BL21 DE3 (pET 21a (+) with the pro-cruzain gene)
T1 sequence (P25779 123-337): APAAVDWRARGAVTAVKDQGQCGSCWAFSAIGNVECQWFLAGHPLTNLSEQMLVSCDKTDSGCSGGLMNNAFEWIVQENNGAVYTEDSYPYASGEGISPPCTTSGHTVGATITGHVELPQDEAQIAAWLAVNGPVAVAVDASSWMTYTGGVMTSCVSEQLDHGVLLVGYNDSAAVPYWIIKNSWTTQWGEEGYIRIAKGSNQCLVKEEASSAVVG
Method: Cruzain at a final concentration of 50 μM was incubated for 30 minutes at 37°C with various concentrations of AsCystatin (50-6.25 μM). Subsequently, 1% casein substrate diluted in Tris-HCl 0.1 M, pH 8, was added. The mixture was incubated again for 30 minutes at 37°C, and the reaction was stopped by adding 250 μL of 20% Trichloroacetic Acid (TCA), followed by a 30-minute rest period at room temperature. Finally, the mixture was centrifuged at 10,000 × g for 15 minutes. Enzymatic activity inhibition was estimated by recording the absorbance of the supernatant at 280 nm using a microplate spectrophotometer (BioTek Eon). The concentration required to inhibit 50% of cruzain enzymatic activity was determined using GraphPad Prism 6.0 software.
The peptides designed, as mentioned in the previous section, were synthesized by AminoTech (São Paulo, Brazil). Subsequently, the ability of the synthetic peptides to inhibit cruzain enzymatic activity was assessed. For this procedure, different concentrations of each peptide (500 to 62.5 μM) were incubated with 50 μM cruzain, and the steps detailed in the section […] were carried out.

[1] = target: epimastigote forms of clone CL B5 of Trypanosoma cruzi; assay: In vitro trypanocidal activity on epimastigotes (CPRG, β-galactosidase); type: cell-based; conditions: T. cruzi CL B5 lacZ epimastigotes, 2.5 × 10^5 parasites/mL, 72 hours at 28°C, peptides 500-62.5 µM, CPRG read-out at 590 nm
Method: To assess the trypanocidal activity of the synthetic peptides, epimastigote forms of clone CL B5 of Trypanosoma cruzi, transfected with the Escherichia coli β-galactosidase gene (lacZ), were used. The parasites were cultivated at 28°C in liver infusion tryptose (LIT) medium, supplemented with 10% fetal bovine serum (FBS) and the antibiotics penicillin and streptomycin. About 200 µL of epimastigotes at 2.5 × 10^5 parasites/mL concentration were plated in a 96-well plate. The parasites were incubated at 28°C for 72 hours with different concentrations of peptides (500-62.5 µM). Then, 50 µL of chlorophenol red-β-D-galactopyranoside (CPRG) solution was added, reaching a final concentration of 200 µM. The plate was incubated again at 37°C for 4 hours, and absorbance was monitored at 590 nm using a spectrophotometer (Synergy H1 multi-mode BIOTEK). Benznidazole was used as a positive control. The half maximal inhibitory concentration (IC50) was determined using GraphPad Prism (v.6.01) software.

[2] = tested on: NCTC clone 929 fibroblasts; assay: In vitro cytotoxicity on fibroblasts (resazurin); type: cell-based, murine; conditions: NCTC929 cells, 2 × 10^4 cells per well, 48 hours 37°C 5% CO2, peptides 500-62.5 µM, absorbance 570 and 600 nm
Method: In these experiments, NCTC clone 929 fibroblasts were cultured in a 96-well plate with 180 µL of minimal essential medium (MEM) supplemented with 10% FBS, penicillin and streptomycin antibiotics. About 2 × 10^4 cells per well were cultured and incubated at 37°C for 48 hours in a 5% CO2 environment with different concentrations of synthetic peptides (500-62.5 µM). Then, 20 µL of a resazurin solution was added, reaching a final concentration of 2 mM. The plate was incubated again at 37°C for 4 hours, and absorbance was monitored at 570 and 600 nm using a Synergy H1 multi-mode spectrophotometer (BIOTEK). GraphPad Prism software determined the half-maximal cytotoxic concentration (CC50) (v.6.01). The CC50 of the reference drug benznidazole was also determined to finally determine the selectivity index

[3] = read-out: IC50 (µM) ± SD, trypanocidal activity

Row | Substance | IC50 (cruzain; SD) [µM] | IC50 ([1]; SD) [µM] | IC50 (µM) ± SD, cytotoxic activity [2] [µM] | IC50 (cruzain) [µM] | IC50 [1, 3] [µM]
1 | GGLQVVTGPW [Pep5] | 220 ± 0.48 | 475.5 ± 1.65 | > 500 | – | –
2 | IPGGLSK [Pep1] | – | – | > 500 | > 500 | > 500
3 | KGGLQVVTGAPWK [Pep7] | 388.5 ± 1.22 | 390.2 ± 2.1 | > 500 | – | –
4 | KGGLQVVTGPWK [Pep6] | 384.6 ± 0.77 | – | > 500 | – | > 500
5 | KIPGGQVVTGPWK [Pep8] | 281.5 ± 2.19 | 471.3 ± 1.8 | > 500 | – | –
6 | KQVVTGK [Pep4, linear peptide derived from AsCystatin with lysine residues at each end] | – | – | > 500 | > 500 | > 500
7 | QSQVVTGAK [Pep3] | – | – | > 500 | > 500 | > 500
8 | QVVTG [Pep2] | – | – | > 500 | > 500 | > 500
